The target in series [1] is T1, CYP3A4 (Homo sapiens, UniProt P08684). As for the experimental part: (§1) Measurement of the activity of all four CYPs was conducted using the P450-Glo™ assay (Promega, Japan), according to the manufacturer’s instructions. Briefly, cells were seeded in a 96-well plate at a density of 1×10^4 cells/well. Twenty-four hours later, test compounds and the luminescent substrate included in the kit were added into the culture media. Following 1 hour of incubation, the detection reagent was added, and the luminescence generated by the metabolic substrate within the culture media was measured using an Infinite F500 plate reader ([…]).
(§2) Curve fitting was performed using the SigmaPlot 13.0 statistical software (Systat Software, IL, USA). […] Data were presented as means ± S.D. Statistical analyses were carried out using unpaired Student’s t test. The level of statistical significance was set at P< 0.05.
(§3) Twenty compounds that are known to inhibit CYPs were used to calculate IC50 values in TC-HepG2 cells, which were then compared to those in primary human hepatocytes.
(§4) Briefly, CYP inhibitors were added to the culture media at the same time as the metabolic substrate to test direct inhibition (DI) or 1 hour prior to the addition of the metabolic substrate to test time-dependent inhibition (TDI).
Target sequence in this assay (P08684 2-503): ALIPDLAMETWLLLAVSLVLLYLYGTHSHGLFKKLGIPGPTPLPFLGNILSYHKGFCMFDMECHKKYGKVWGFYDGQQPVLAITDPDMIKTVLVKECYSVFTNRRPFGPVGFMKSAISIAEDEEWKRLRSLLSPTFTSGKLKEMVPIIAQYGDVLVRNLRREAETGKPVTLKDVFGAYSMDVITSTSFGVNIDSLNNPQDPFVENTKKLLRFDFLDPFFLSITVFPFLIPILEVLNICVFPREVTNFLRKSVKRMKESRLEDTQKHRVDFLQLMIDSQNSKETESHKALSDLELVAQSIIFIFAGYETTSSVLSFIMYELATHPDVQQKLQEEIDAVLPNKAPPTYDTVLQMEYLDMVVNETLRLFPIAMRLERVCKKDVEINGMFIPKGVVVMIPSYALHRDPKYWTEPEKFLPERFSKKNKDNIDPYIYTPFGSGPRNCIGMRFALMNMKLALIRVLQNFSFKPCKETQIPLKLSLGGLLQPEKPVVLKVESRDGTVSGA

Series [2] concerns the target T1, CYP3A4. Briefly: in vitro. The procedure: as §1
Fig 6G–6I show the plots to determine the rate of inactivation (kobs) for the three inhibitors as depicted in Fig 6A–6F.
Macrolides (0–100 μM/L) were preincubated at 37°C for 0–30 min, and the reaction was initiated by the addition of CYP3A-specific substrate for 30 min. (G—I) Apparent inactivation rate (kobs) was estimated graphically from the slope of the plot for the natural log enzyme activity remaining after preincubation against preincubation time and was corrected for any loss of activity in the absence of the inhibitor. kinact and Ki,app values were obtained from a double reciprocal plot of kobs against inhibitor concentration. Closed circles represent TC-HepG2 cells, and opened circles represent parental HepG2 cells. Each symbol represents the average of triplicate determinations.

The target in series [3] is T2, CYP2D6 (Homo sapiens, UniProt P10635). Briefly: cell-based. The procedure:
as §1, §2, §3, §4

In series [4] the target is T2, CYP2D6. The experiment in a line: cell-based. The series is classed as in vitro ADME. Also noted: endogenous in cells; host or cells: primary human hepatocytes. The settings on record: primary human hepatocytes; mean ± S.D. of triplicate.
The target in series [5] is CYP2C9 (Homo sapiens, UniProt P11712). The settings on record: TC-HepG2 cells, Fig 5. As for the experimental part: as §1, §2, §3, §4
Chain of CYP2C9 (P11712 whole entry): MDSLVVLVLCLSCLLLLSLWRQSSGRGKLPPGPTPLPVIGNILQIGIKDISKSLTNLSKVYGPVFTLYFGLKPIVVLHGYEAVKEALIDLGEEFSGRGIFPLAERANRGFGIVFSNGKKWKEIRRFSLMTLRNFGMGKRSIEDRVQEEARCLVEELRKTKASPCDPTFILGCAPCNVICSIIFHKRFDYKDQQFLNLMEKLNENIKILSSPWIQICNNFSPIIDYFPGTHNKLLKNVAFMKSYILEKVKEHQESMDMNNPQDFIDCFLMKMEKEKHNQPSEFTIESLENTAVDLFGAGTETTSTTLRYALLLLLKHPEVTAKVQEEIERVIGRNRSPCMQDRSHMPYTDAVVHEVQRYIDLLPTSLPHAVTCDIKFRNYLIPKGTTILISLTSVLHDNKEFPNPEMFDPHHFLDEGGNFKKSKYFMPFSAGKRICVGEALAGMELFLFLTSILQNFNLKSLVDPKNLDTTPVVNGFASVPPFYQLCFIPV
Series [6] has as its target T3, CYP2C19 (Homo sapiens, UniProt P33261). The experiment in a line: cell-based. As for the experimental part: as §1, §2, §3, §4
The target in series [7] is T3, CYP2C19. Briefly: cell-based. The series is classed as in vitro ADME. Also noted: endogenous in cells; host or cells: primary human hepatocytes. Particulars: primary human hepatocytes; mean ± S.D. of triplicate.
Series [8] relates to TC-HepG2 cells.
Series [9] has as its system HepG2 cells.

Read-outs that look alike come from different tables or passages of the source.

T2 sequence (P10635 whole entry): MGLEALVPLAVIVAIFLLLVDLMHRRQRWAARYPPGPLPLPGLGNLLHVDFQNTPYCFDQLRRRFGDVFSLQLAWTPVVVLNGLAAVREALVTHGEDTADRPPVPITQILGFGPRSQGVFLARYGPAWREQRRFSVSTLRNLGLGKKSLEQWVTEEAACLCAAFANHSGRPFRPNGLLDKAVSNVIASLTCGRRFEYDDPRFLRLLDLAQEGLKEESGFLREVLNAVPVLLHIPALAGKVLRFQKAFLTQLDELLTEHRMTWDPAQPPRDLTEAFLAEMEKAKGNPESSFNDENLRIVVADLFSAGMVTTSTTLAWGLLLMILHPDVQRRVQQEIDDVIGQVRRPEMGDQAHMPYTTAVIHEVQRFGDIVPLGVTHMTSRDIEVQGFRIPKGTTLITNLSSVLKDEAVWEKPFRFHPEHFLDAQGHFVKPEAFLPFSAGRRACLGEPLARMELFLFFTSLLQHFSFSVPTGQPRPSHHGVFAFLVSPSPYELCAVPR
T3 sequence (P33261 whole entry): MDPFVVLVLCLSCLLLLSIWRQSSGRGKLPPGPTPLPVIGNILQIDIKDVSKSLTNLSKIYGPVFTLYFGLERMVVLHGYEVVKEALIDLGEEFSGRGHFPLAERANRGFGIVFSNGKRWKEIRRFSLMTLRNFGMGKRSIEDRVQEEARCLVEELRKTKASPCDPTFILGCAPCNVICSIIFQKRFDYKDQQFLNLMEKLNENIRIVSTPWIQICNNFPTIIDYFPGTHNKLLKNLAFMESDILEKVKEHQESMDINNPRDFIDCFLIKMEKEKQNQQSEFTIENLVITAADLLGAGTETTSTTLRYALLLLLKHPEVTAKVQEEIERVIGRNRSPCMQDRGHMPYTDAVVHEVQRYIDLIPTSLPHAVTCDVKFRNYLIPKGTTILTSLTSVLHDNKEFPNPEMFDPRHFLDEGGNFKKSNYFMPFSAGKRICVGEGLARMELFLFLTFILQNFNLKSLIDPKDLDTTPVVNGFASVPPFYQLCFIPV

Consider `CC[C@H]1OC(=O)[C@H](C)[C@@H](O[C@H]2C[C@@](C)(OC)[C@@H](O)[C@H](C)O2)[C@H](C)[C@@H](O[C@@H]2O[C@H](C)C[C@H](N(C)C)[C@H]2O)[C@](C)(OC)C[C@@H](C)C(=O)[C@H](C)[C@@H](O)[C@]1(C)O` [Clarithromycin], for which the “inhibitory effect with 1 hour preincubation (TDI) compared with simultaneous addition of inhibitor and substrate (DI), CYP3A4” value in series [1] (TC-HepG2 cells, Fig 5) is “higher”. In [1] (three TC-HepG2 clones (Fig 3C)), the “inhibitory effect on CYP3A4 metabolic activity” value is “concentration-dependent inhibitory effect”. Further, the “suppression of the generation of metabolites of the luminescent CYP3A4 substrate” value in [2] (0-100 μM added 10, 20 or 30 min before substrate (Fig 6)) is “time- and concentration-dependent manner”. The values for the KI (inactivation) in series [2] (hepatocytes) and in [2] (human) were 16 ± 4.3 µM and 3.76 ± 0.42 µM, respectively.

For the molecule `C#C[C@]1(O)CC[C@H]2[C@@H]3CCc4cc(O)ccc4[C@H]3CC[C@@]21C` [Ethinylestradiol], the “inhibitory effect with 1 hour preincubation (TDI) compared with simultaneous addition of inhibitor and substrate (DI), CYP3A4” value in series [1] (TC-HepG2 cells, Fig 5) was “higher”.

Regarding `Fc1ccc([C@@H]2CCNC[C@H]2COc2ccc3c(c2)OCO3)cc1` [Paroxetine], the “inhibitory effect with 1 hour preincubation (TDI) compared with simultaneous addition of inhibitor and substrate (DI), CYP2D6” value in series [3] is “higher”.

For the molecule `CC[C@H]1OC(=O)[C@H](C)[C@@H](O[C@H]2C[C@@](C)(OC)[C@@H](O)[C@H](C)O2)[C@H](C)[C@@H](O[C@@H]2O[C@H](C)C[C@H](N(C)C)[C@H]2O)[C@](C)(O)C[C@@H](C)/C(=N\OCOCCOC)[C@H](C)[C@@H](O)[C@]1(C)O` [Roxithromycin], in [1], the “inhibitory effect with 1 hour preincubation (TDI) compared with simultaneous addition of inhibitor and substrate (DI), CYP3A4” value is reported as “higher”. Further, the “suppression of the generation of metabolites of the luminescent CYP3A4 substrate” value in series [2] is “time- and concentration-dependent manner”. Also, in series [2] (hepatocytes), the KI (inactivation) was 13.1 ± 4.7 µM and the inactivation rate constant (kinact) is 0.000161 s⁻¹. In [2] (human), the KI (inactivation) amounted to 4.6 ± 0.6 µM and the kinact is 0.000431 s⁻¹.

Take `CN(C/C=C/C#CC(C)(C)C)Cc1cccc2ccccc12` [Terbinafine]: the IC50 in series [3] turned out to be 0.0021 ± 0.0002 µM; in series [4] it was 0.0099 ± 0.0002 µM.

Turning to `O=C(O)COc1ccc(C(=O)c2cccs2)c(Cl)c1Cl` [Tienilic acid], in [5], the “inhibitory effect with 1 hour preincubation (TDI) compared with simultaneous addition of inhibitor and substrate (DI), CYP2C9” value is on record as “higher”. For the same molecule, the results for the IC50 in series [6] and in [7] were 5.7 ± 1.7 µM and 0.55 ± 0.02 µM, respectively.

For `COc1cc2c(c3oc4cccc(O)c4c(=O)c13)[C@@H]1C=CO[C@@H]1O2` [sterigmatocystin], in series [8], the “cell survival rate in TC-HepG2 cells compared with parental HepG2 cells” value is given as “significantly lower” and the “survival of TC-HepG2 cells” value is reported as “concentration-dependent decrease”. Further, the “toxicity in parental HepG2 cells lacking CYPs” value in series [9] is given as “neither compound was toxic”.

On to aflatoxin B1, for which the “IC50 in TC-HepG2 cells compared with HepG2 cells” value in series [8] is “lower”. In [9], the “toxicity in parental HepG2 cells lacking CYPs” value was “neither compound was toxic”.

A word on the kinact: it is the maximal first-order rate at which the target is inactivated. One may read the IC50 as the concentration that gives 50% inhibition.

Source of the values: paper PMC5655360, “Establishment of a novel hepatocyte model that expresses four cytochrome P450 genes stably via mammalian-derived artificial chromosome for pharmacokinetics and toxicity studies” (PLoS ONE, 2017).
